Data on one molecule can be found in patent publication US10766857B2, “Compound having BLT inhibitory activity and composition, for preventing or treating inflammatory diseases, comprising same as active ingredient” (DONGGUK UNIVERSITY INDUSTRY-ACADEMIC COOPERATION FOUNDATION, priority 2015, dated 2020).

By IC50 is commonly meant the midpoint of a concentration-inhibition curve.

One assay concerns the target T1, BLT1 (Homo sapiens, UniProt Q15722).
T1 construct: expressed in transfected cells; host or cells: CHO cells stably expressing BLT1 (CHO-BLT1)
The assay can be described thus: LTB4-induced chemotactic motility, Transwell, CHO-BLT1 cells. The class given is cell-based. The conditions noted are these: LTB4 10 nM, serum-free, read-out: IC50 of chemotactic motility inhibition. On the procedure:
(§1) Chemotactic motility was analyzed using a Transwell chamber including a polycarbonate filter (8-μm pore size, Corning Costar) with a 6.5-mm diameter. Specifically, the lower surface of the filter was coated with 10 μg/mL fibronectin in a serum-free RPMI 1640 medium at 37° C. for 1 hour. The experiment was performed by placing the filter dried and coated with RPMI 1640 media containing various amounts of LTB4 in the lower wells of the Transwell chamber, and loading CHO cells stably expressing BLT1 and BLT2 into the upper wells containing serum-free RPMI 1640 media finally at 2×10^4 cells/100 μL. To evaluate the effect of inhibitors, the cells were pre-treated with each inhibitor for 30 minutes before dispensing. After the cells were cultured at 37° C. in 5% CO2 for 3 hours, the filters were fixed with methanol for 3 minutes, and stained with hematoxylin and eosin for 10 minutes. In the experiment, the cells were BLT2-expressing cells (CHO-BLT2 cells) and BLT1-expressing cells (CHO-BLT1 cells), and LY255283 and U75302 were used as positive controls for each type of the cells, and BLT2 ligand LTB4, (300 nM), BLT1 ligand LTB4 (10 nM), and lysophosphatidic acid (LPA; 100 nM) were used as comparative controls. The chemotactic motility was quantitatively analyzed by counting the cells on the lower side of the filter under an optical microscope (magnification, 200×). For each analysis, 6 fields were subjected to counting, each sample was analyzed twice, and the analysis was repeated three times.

The test system of assay [1] is asthma-induced mice (OVA+LPS). The assay can be described thus: OVA+LPS-induced severe asthma mice: AHR and cell influx. The class given is in vivo. The conditions noted are these: for AHR reduced: airway constrictor 50 mg/ml. The source says: Mast cells play a pivotal role in the initial reaction to asthma, and when an allergen enters the body from the outside through an airway, the mast cells are activated, thereby secreting various cytokines (interleukin-4 and interleukin-13). Due to the cytokines, the influx of inflammatory cells, the generation of mucus and the airway contraction occur. The inventors used 7-week-old (18 to 20 g) female BALB/c mice provided by Orient (Seoungnam, Korea) for the experiment to confirm the antiasthma effect, and then the asthma was induced in the mice. On the first and 14th days, 2.5 mg of an adjuvant, aluminum hydroxide gel (alum; Pierce, Rockford, Ill.) was included in […] of ovalbumin (OVA) to intraperitoneally sensitize female […] mice. On the 21st, 22nd and 23rd days of two initial sensitizations, 1% OVA was sprayed into the mice using an ultrasonic nebulizer. The compound of the present invention (LMT-696; 5 mg/kg), LY255283 (5 mg/kg, Cayman) or DMSO was intraperitoneally injected at the 1 hour before the 1% OVA spraying. On the 24th day of the initial sensitization, airway hyperresponsiveness (AHR) was detected, and on the 25th day, the mice were dissected to observe asthma phenotypes, for example, inflammatory cytokine IL-4 expression and the influx of inflammatory cells (neutrophils). In the case of lipopolysaccharide (LPS)-induced severe asthma animal models, on the 0, 1st, 2nd and 7th days, 75 μg of OVA and 1 mg of LPS were intranasally injected into Balb/c mice for sensitization. On the 14th, 15th, 21th and 22th days, 50 μg of OVA was injected into the nose for a challenge. The compound of the present invention (LMT-1013) (1, 3, 10 or 30 mg/kg), montelukast (10 mg/kg, DRS) or a control buffer (10% DMA, 5% Tween 80, 85% brine) were treated one hour before the challenge by injecting 50 μg of OVA into the nose. On the 23rd day of the initial sensitization, AHR was detected, and on the 24th day, the mice were dissected to observe a severe asthma phenotype, for example, the influx of the inflammatory cells (neutrophils). In addition, the AHR detection was performed after an airway constrictor, methacholine (6.25 to 50 mg/ml depending on conditions), was administered to the mice. The administration of the airway constrictor was performed by spraying through an inlet of the chamber using an ultrasonic nebulizer for 3 minutes. The AHR was analyzed using an enhanced pause as the indicator of the asthma phenomenon. Bronchoalveolar lavage fluid cell counts were quantified by counting cells under an optical microscope (magnification, 200×). In each analysis, 4 fields were subjected to counting, each sample was analyzed twice, and the analysis was repeated three times.

Assay [2] concerns the target T2, BLT2 (Homo sapiens, UniProt Q9NPC1).
T2 construct: HA; expressed in transfected cells
T2 sequence (Q9NPC1 with tags, fused parts or gaps): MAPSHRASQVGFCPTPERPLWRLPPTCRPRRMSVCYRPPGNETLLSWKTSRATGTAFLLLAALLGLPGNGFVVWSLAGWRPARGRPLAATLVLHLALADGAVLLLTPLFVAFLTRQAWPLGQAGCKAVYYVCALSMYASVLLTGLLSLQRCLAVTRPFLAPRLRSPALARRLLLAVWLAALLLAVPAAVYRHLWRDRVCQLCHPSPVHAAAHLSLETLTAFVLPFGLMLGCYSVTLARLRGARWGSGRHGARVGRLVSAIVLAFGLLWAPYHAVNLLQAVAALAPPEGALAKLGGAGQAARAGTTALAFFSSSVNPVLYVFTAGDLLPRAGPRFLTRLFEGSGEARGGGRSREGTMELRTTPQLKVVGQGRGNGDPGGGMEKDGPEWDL
Put plainly: [3H]LTB4 and BLT2 binding inhibition, CHO-BLT2 cell membrane proteins. The conditions noted are these: [3H]LTB4 5 nM.
Protocol: The inhibition of LTB4 and BLT2 binding (ligand binding affinity) was analyzed using radioactive tritium (^3H)-labeled LTB4 ([^3H]LTB4, ARC; specific activity 160.0 Ci/mmol). After 2×10^6 of CHO-BLT2 cells were plated into a 100-mm culture dish and cultured for 48 hours, an experimental method was carried out as follows: Collected cells were treated using a homogenizer a total of five times for 1 minute each to separate proteins of the cell membrane. Afterward, the cells were subjected to centrifugation at 4° C. and 45,000 rpm for 40 minutes to only collect the proteins of the cell membrane, and thereby, a protein concentration of 40 μg/45 μL was quantified. When a BLT2-containing cell membrane proteins which were quantified in the same manner was treated with the same amount of [^3H]LTB4 (5 nM), and then a different concentration (10^−9, 10^−8, 10^−7, 10^−6 or 10^−5 M) of a compound, a degree of inhibiting the tritium-labeled LTB4 and BLT2 binding was measured using a Hidex 300sL liquid scintillation counter.

For assay [3], the target named is T2, BLT2. The assay can be described thus: LTB4-induced chemotactic motility, Transwell, CHO-BLT2 cells. The class given is cell-based. The conditions noted are these: LTB4 300 nM, serum-free, read-out: IC50 of chemotactic motility inhibition. Here is the method: as §1
Assay [4] addresses T3, BLT2-expressing cells (CHO-BLT2 cells) (Homo sapiens, UniProt Q9NPC1).
T3 construct: HA; expressed in transfected cells
T3 sequence (Q9NPC1 with tags, fused parts or gaps): T2 sequence (Q9NPC1 with tags, fused parts or gaps)
The assay can be described thus: MTT cell growth of LTB4-stimulated BLT2-expressing cells. The class given is cell-based. As to conditions: pre-treated at 10 μM, LTB4 300 nM. On the procedure:
Cell viability according to treatment of the compounds prepared in the examples were measured by a 3-(4,5-dimethylthiazol-2-yl)-2,5-diphenyltetrazolium bromide (MTT) method.
More specifically, 1×10^4 each of the BLT2-nonexpressing cells (CHO-pcDNA3.1 cells) and BLT2-expressing cells (CHO-BLT2 cells), which were prepared in Experimental Example 1, were dispensed in a […], and cultured for 24 hours. Afterward, the culture medium was removed, a serum-free RPMI medium was added, and after two hours, the cells were pre-treated with each of the compound prepared in one of the examples (10 μM), 10 μM DMSO (compound solvent) as a control, and 10 μM 1-[5-ethyl-2-hydroxy-4-[[6-methyl-6-(1H-tetrazol-5-yl)heptyl]oxy]phenyl]-ethanone (LY255283; Cayman) as a positive control for 1 hour. Subsequently, after treatment of LTB4 (300 nM), the cells were cultured for 24 hours. 20 μL of an MTT solution (5 mg/mL, Sigma-Aldrich) was added to each well, the cells were cultured in a humid CO2 incubator at 37° C. for 4 hours, a supernatant was removed, and 200 μL of DMSO was added to each well to dissolve insoluble violet formazan crystals. Absorbance was measured using a microplate reader (Molecular Devices, Sunnyvale, Calif.) at 550 nm, and the measurement was repeated three times.

T1 sequence (Q15722 whole entry, species assumed): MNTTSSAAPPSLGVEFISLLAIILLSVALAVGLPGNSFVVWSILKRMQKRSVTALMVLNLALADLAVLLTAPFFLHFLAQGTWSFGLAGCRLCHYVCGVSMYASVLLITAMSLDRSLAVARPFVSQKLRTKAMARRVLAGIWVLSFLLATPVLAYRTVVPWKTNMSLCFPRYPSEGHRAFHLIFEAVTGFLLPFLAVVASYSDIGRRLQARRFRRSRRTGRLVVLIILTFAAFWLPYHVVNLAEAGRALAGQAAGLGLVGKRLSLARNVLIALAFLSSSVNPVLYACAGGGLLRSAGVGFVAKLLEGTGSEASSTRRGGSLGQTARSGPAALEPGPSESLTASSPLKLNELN

Take `CCCCC(=O)N(CC#Cc1ccc(C(=O)O)cc1)c1ccccc1` [LMT-1013, 4-(3-(N-phenylpentaneamido)prop-1-yn-1-yl)benzoic acid]: the IC50 at BLT1 was ≥ 10000 nM; at BLT2 [2] it was 30.7 nM; at BLT2 [3] it was 62.4 nM. Moreover, the neutrophils reduced was determined as 51.6% in assay [1] (1 mg/kg, FIGS. 13A-13C); 42.2% in assay [1] (1 mg/kg, FIGS. 14A-14B); 48.8% in assay [1] (3 mg/kg, FIGS. 14A-14B); 90.3% in assay [1] (10 mg/kg, FIGS. 13A-13C); 71.8% in assay [1] (10 mg/kg, FIGS. 14A-14B); 88.3% in assay [1] (30 mg/kg, FIGS. 14A-14B). Further, the AHR reduced in assay [1] (1 mg/kg) came out at 48.6%; in assay [1] (3 mg/kg) it was 52.9%; in assay [1] (10 mg/kg) it was 83.2%; in assay [1] (30 mg/kg), 87.3%. For the same molecule, the “total cells entering the abdominal cavity of the mice” value in assay [1] (1, 3, 10 and 30 mg/kg, FIGS. 14A-14B) is given as “reduced”; in assay [1] (1 and 10 mg/kg, FIGS. 13A-13C), “reduced”. Further, the “cell growth compared with the control DMSO” value in assay [4] worked out at 96.3%.
